Molecular target: T1, JNK1 (Homo sapiens, UniProt P45983)
T1 construct: purchased Carna Biosciences
Experiment: JNK1 biochemical assays (one or more of: time resolved fluorescence, Z'-LYTE Cascade, radioactive)
Details: Table 2; JNK1 IC50 activity level; read-out: Act. Level

T1 sequence (P45983 whole entry): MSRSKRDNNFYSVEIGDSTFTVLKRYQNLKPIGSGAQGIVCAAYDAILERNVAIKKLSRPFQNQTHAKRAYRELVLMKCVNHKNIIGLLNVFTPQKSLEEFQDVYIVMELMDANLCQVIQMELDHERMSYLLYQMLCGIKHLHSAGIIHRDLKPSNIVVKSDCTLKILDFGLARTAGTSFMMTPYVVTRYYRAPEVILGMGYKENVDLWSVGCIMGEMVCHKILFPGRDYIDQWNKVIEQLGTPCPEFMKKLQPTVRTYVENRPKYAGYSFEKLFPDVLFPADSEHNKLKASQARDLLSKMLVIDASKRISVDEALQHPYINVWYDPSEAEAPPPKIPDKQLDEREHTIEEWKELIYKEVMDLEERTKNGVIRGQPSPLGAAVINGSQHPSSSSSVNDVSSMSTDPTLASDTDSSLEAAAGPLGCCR

| IC50 [nM] | Structure (SMILES) |
| --- | --- |
| 200 to 800 | NC(=O)c1cnc(NCc2cccc(F)c2)nc1Nc1ccccc1 [Example B-39, 2-(3-fluorobenzylamino)-4-(phenylamino)pyrimidine-5-carboxamide] |
| 200 to 800 | COc1cccc(CNc2ncc(C(N)=O)c(Nc3ccccc3)n2)c1OC [Example B-55, 2-(2,3-dimethoxybenzylamino)-4-(phenylamino)pyrimidine-5-carboxamide] |
| < 200 | NC(=O)c1cnc(N[C@@H]2CCc3cccnc3C2)nc1N[C@@H]1CCC[C@H](O)C1 [Example B-88, 4-((1R,3S)-3-hydroxycyclohexylamino)-2-((R)-5,6,7,8-tetrahydroquinolin-7-ylamino)pyrimidine-5-carboxamide] |
| < 200 | NC(=O)c1cnc(NC2CCCCC2)nc1Nc1ccccc1 [Example B-45, 2-(cyclohexylamino)-4-(phenylamino)pyrimidine-5-carboxamide] |
| < 200 | C[C@@H](Nc1ncc(C(N)=O)c(N[C@@H]2CCC[C@H](O)C2)n1)c1ccc(F)cc1 [Example B-89, 2-((R)-1-(4-fluorophenyl)ethylamino)-4-((1R,3S)-3-hydroxycyclohexylamino)pyrimidine-5-carboxamide] |

Same assay, conditions: Table 3; JNK1 IC50 activity level; read-out: Act. Level

| IC50 [nM] | Structure (SMILES) |
| --- | --- |
| < 200 | N#Cc1cnc(N[C@H]2CC[C@H](O)CC2)nc1N[C@@H]1CCCC[C@H](O)C1 [Example C-36] |
| 200 to 800 | CN(C)C(=O)C(C)(C)C1CCC(Nc2ncc(C#N)c(N[C@@H]3CCC[C@H](O)C3)n2)CC1 (stereo partly drawn) [Example C-35, 2-(4-(5-cyano-4-((1R,3S)-3-hydroxycyclohexylamino)pyrimidin-2-ylamino)cyclohexyl)-N,N,2-trimethylpropanamide] |

Same assay, conditions: one or more of the JNK1 biochemical assays; read-out: Act. Level (JNK1 IC50 activity level)

| IC50 [nM] | Structure (SMILES) |
| --- | --- |
| < 200 | CCO[C@H]1CC[C@H](Nc2ncc(C(N)=O)c(N[C@@H](C)C(C)(C)C)n2)CC1 [Example 276, 4-((S)-3,3-dimethylbutan-2-ylamino)-2-((1r,4S)-4-ethoxycyclohexylamino)pyrimidine-5-carboxamide] |
| < 200 | COC12CCC(Nc3ncc(C(N)=O)c(NC4CCC[C@](C)(O)C4)n3)(CC1)CC2 (stereo partly drawn) [Example 370, 4-((3S)-3-hydroxy-3-methylcyclohexylamino)-2-(4-methoxybicyclo[2.2.2]octan-1-ylamino)pyrimidine-5-carboxamide] |
| < 200 | CC1CCC1Nc1nc(N[C@H]2CC[C@H](OCC(F)(F)F)CC2)ncc1C(N)=O (some centres unmarked) [Example 265, 4-(2-methylcyclobutylamino)-2-((1r,4r)-4-(2,2,2-trifluoroethoxy)cyclohexylamino)pyrimidine-5-carboxamide] |
| < 200 | C[C@@H]1CC[C@@H](Nc2nc(NC3CC(F)(F)C3)ncc2C(N)=O)C[C@H]1O [Example 444, 2-(3,3-difluorocyclobutylamino)-4-((1R,3R,4R)-3-hydroxy-4-methylcyclohexylamino)pyrimidine-5-carboxamide] |
| < 200 | CC(C)Nc1nc(NC23CCC(F)(CC2)CC3)ncc1C(N)=O [Example 253, 2-(4-fluorobicyclo[2.2.2]octan-1-ylamino)-4-(isopropylamino)pyrimidine-5-carboxamide] |
| < 200 | NC(=O)c1cnc(NC23CC(C2)C3)nc1N[C@@H]1CCCC[C@H](O)C1 [Example 346, 2-(bicyclo[1.1.1]pentan-1-ylamino)-4-((1R,3S)-3-hydroxycycloheptylamino)pyrimidine-5-carboxamide] |
| < 200 | CC1(Nc2nc(NC34CCC(O)(CC3)CC4)ncc2C(N)=O)CCC1 [Example 412, 2-(4-hydroxybicyclo[2.2.2]octan-1-ylamino)-4-(1-methylcyclobutylamino)pyrimidine-5-carboxamide] |
| < 200 | CC(C)(C)Nc1nc(N[C@H]2CC[C@H](OC3CC3)CC2)ncc1C(N)=O [Example 304, 4-(tert-butylamino)-2-((1r,4r)-4-cyclopropoxycyclohexylamino)pyrimidine-5-carboxamide] |
| 200 to 800 | CC(C)(C)Nc1ncc(C(N)=O)c(N[C@H]2CCC(C)(C)[C@@H](O)C2)n1 [Example 323, 2-(tert-butylamino)-4-((1S,3S)-3-hydroxy-4,4-dimethylcyclohexylamino)pyrimidine-5-carboxamide] |
| < 200 | CC(C)CC(C)(C)Nc1nc(N[C@H]2CC[C@H](O)CC2)ncc1C(N)=O [Example 369, 4-(2,4-dimethylpentan-2-ylamino)-2-((1r,4r)-4-hydroxycyclohexylamino)pyrimidine-5-carboxamide] |
| < 200 | NC(=O)c1cnc(N[C@H]2CC[C@H](O)CC2)nc1NC1C2CC1C2 (some centres unmarked) [Example 453, 4-(bicyclo[1.1.1]pentan-2-ylamino)-2-((1r,4r)-4-hydroxycyclohexylamino)pyrimidine-5-carboxamide] |
| < 200 | C[C@@H]1CC[C@@H](Nc2nc(NC34CC(C(F)(F)F)(C3)C4)ncc2C(N)=O)C[C@H]1O [Example 441, 4-((1R,3R,4R)-3-hydroxy-4-methylcyclohexylamino)-2-(3-(trifluoromethyl)bicyclo[1.1.1]pentan-1-ylamino)pyrimidine-5-carboxamide] |
| < 200 | C[C@@H](Nc1nc(N[C@H]2CC[C@H](OCC(F)(F)F)CC2)ncc1C(N)=O)C1CC1 [Example 409, 4-((R)-1-cyclopropylethylamino)-2-((1r,4R)-4-(2,2,2-trifluoroethoxy)cyclohexylamino)pyrimidine-5-carboxamide] |
| < 200 | NC(=O)c1cnc(N[C@H]2CC[C@H](OC3CC3)CC2)nc1NC1C2CC1C2 (some centres unmarked) [Example 486, 4-(bicyclo[1.1.1]pentan-2-ylamino)-2-((1r,4r)-4-cyclopropoxycyclohexylamino)pyrimidine-5-carboxamide] |
| < 200 | NC(=O)c1cnc(NC2CCCC(O)CC2)nc1NC1CCC1 (centres unmarked) [Example 248, 4-(cyclobutylamino)-2-(4-hydroxycycloheptylamino)pyrimidine-5-carboxamide] |
| < 200 | CC(C)(C)Nc1nc(N[C@@H]2CCCC[C@@H](O)C2)ncc1C(N)=O [Example 386, 4-(tert-butylamino)-2-((1R,3R)-3-hydroxycycloheptylamino)pyrimidine-5-carboxamide] |
| < 200 | CCNc1nc(N[C@H]2CC[C@H](O)CC2)ncc1C(N)=O [Example 269, 4-(ethylamino)-2-((1r,4r)-4-hydroxycyclohexylamino)pyrimidine-5-carboxamide] |
| < 200 | C[C@@H]1CC[C@@H](Nc2nc(NC3COC3)ncc2C(N)=O)C[C@H]1O [Example 312, 4-((1R,3R,4R)-3-hydroxy-4-methylcyclohexylamino)-2-(oxetan-3-ylamino)pyrimidine-5-carboxamide] |
| < 200 | C[C@@H](Nc1nc(N[C@H]2CC[C@H](O)CC2)ncc1C(N)=O)C1CCC1 [Example 298, 4-((R)-1-cyclobutylethylamino)-2-((1r,4R)-4-hydroxycyclohexylamino)pyrimidine-5-carboxamide] |
| < 200 | CC(C)(C)Nc1nc(NC2CCOCC2)ncc1C(N)=O [Example 317, 4-(tert-butylamino)-2-(tetrahydro-2H-pyran-4-ylamino)pyrimidine-5-carboxamide] |

Same assay, conditions: tested in one or more of the JNK1 biochemical assays; read-out: Act. Level (JNK1 biochemical assay IC50 activity level)

| IC50 [nM] | Structure (SMILES) |
| --- | --- |
| 200 to 800 | COC[C@H]1CC[C@@H](Nc2nc(N[C@@H]3CCN(C(C)=O)C3)ncc2C(N)=O)CC1 [Example A-84, 2-((R)-1-acetylpyrrolidin-3-ylamino)-4-((1s,4S)-4-(methoxymethyl)cyclohexylamino)pyrimidine-5-carboxamide] |
| < 200 | CCO[C@H]1CC[C@H](Nc2ncc(C(N)=O)c(N[C@@H]3CCCC[C@H](O)C3)n2)CC1 [Example A-158, 2-((1r,4R)-4-ethoxycyclohexylamino)-4-((1R,3S)-3-hydroxycycloheptylamino)pyrimidine-5-carboxamide] |
| 800 to 1000 | NC(=O)c1cnc(NC2CCC2)nc1N[C@H]1CC[C@@H](C(=O)N2CCCCC2)CC1 [Example A-133, 2-(cyclobutylamino)-4-((1s,4s)-4-(piperidine-1-carbonyl)cyclohexylamino)pyrimidine-5-carboxamide] |
| < 200 | CO[C@H]1CC[C@H](Nc2ncc(C(N)=O)c(NC3COCC(O)C3)n2)CC1 (some centres unmarked) [Example A-13, 4-(5-hydroxytetrahydro-2H-pyran-3-ylamino)-2-((1r,4r)-4-methoxycyclohexylamino)pyrimidine-5-carboxamide] |
| < 200 | CO[C@H]1CC[C@@H](Nc2nc(N[C@H]3CC[C@H](O)CC3)ncc2C(N)=O)CC1 [Example A-100, 2-((1r,4r)-4-hydroxycyclohexylamino)-4-((1s,4s)-4-methoxycyclohexylamino)pyrimidine-5-carboxamide] |
| < 200 | NC(=O)c1cnc(NC2CCC(F)(F)CC2)nc1N[C@@H]1CCC[C@H]1O [Example A-5, 2-(4,4-difluorocyclohexylamino)-4-((1R,2R)-2-hydroxycyclopentylamino)pyrimidine-5-carboxamide] |
| 200 to 800 | CO[C@H]1CC[C@H](Nc2ncc(C(N)=O)c(N[C@@H]3CCNC(=O)C3)n2)CC1 [Example A-26, 2-((1r,4R)-4-methoxycyclohexylamino)-4-((R)-2-oxopiperidin-4-ylamino)pyrimidine-5-carboxamide] |
| < 200 | CCC(=O)N1CCC(Nc2nc(N[C@H]3CC[C@H](O)CC3)ncc2C(N)=O)CC1 [Example A-90, 2-((1r,4r)-4-hydroxycyclohexylamino)-4-(1-propionylpiperidin-4-ylamino)pyrimidine-5-carboxamide] |
| < 200 | CCO[C@H]1CC[C@H](Nc2ncc(C(N)=O)c(N[C@H]3CCC[C@@H]3O)n2)CC1 [Example A-117, 2-((1r,4S)-4-ethoxycyclohexylamino)-4-((1S,2S)-2-hydroxycyclopentylamino)pyrimidine-5-carboxamide] |
| < 200 | CCC(=O)N1CCC(Nc2ncc(C(N)=O)c(NC3CCCC3)n2)CC1 [Example A-114, 4-(cyclopentylamino)-2-(1-propionylpiperidin-4-ylamino)pyrimidine-5-carboxamide] |
| < 200 | COC[C@H]1CC[C@H](Nc2ncc(C(N)=O)c(N[C@H]3CCC(O)C3)n2)CC1 (stereo partly drawn) [Example A-94, 4-((1S,3R)-3-hydroxycyclopentylamino)-2-((1r,4S)-4-(methoxymethyl)cyclohexylamino)pyrimidine-5-carboxamide] |

Source: patent publication US12129237B2, “Substituted diaminocarboxamide and diaminocarbonitrile pyrimidines, compositions thereof, and methods of treatment therewith” (SIGNAL PHARMACEUTICALS, LLC, priority 2011, dated 2024)
